Test results reported in ChEMBL document CHEMBL1201862, “PubChem BioAssay data set” (2004).
Each block holds one molecule with its values, some of them ahead of it. The source made the active and inactive calls.

Experiments:
[1] = biological target: Luciferin 4-monooxygenase (Photinus pyralis, UniProt P08659); assay: inhibition of purified Photinus pyralis luciferase – biochemical, luminescence, dose response (AID 1891)
[2] = Luminescence Cell-Based Dose Confirmation HTS to Identify Inhibitors of Platelet Dense Granule Release. [Related pubchem assays: 1663 (Primary HTS), 1678 (Summary of Project)]; type: functional
[3] = Fluorescence Cell-Based Dose Response to Identify Inhibitors of Thrombin Receptor-Activating Peptide SFLLRN-Mediated P-Selectin Induction on Platelets. [Related pubchem assays: 1663 (Primary HTS), 1889 (retest at dose ), 1891 (counterscreen), 1678 (Project Summary)]; type: functional
Transthyretin = Transthyretin (Homo sapiens, UniProt P02766); assay: Luminescence-based cell-based high throughput dose response assay to identify activators of Transthyretin (TTR) transcription.; type: functional
Heat shock protein HSP90 = Heat shock protein HSP90 (Homo sapiens, UniProt P07900+P08238); assay: Hsp90 blockade concentration-response – dose response (AID 712); type: functional
Cytochrome P450 3A4 = Cytochrome P450 3A4 (Homo sapiens, UniProt P08684);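 note: CYP3A4 tested as one member of a cytochrome P450 panel screen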
[4] = Dd2 parasite growth inhibition in erythrocytes – SYBR Green, dry powder samples, set 4, dose response (AID 1159572); type: functional, cell-based
[5] = biological target: T1, Calpain-2 catalytic subunit (Sus scrofa, UniProt P43367); assay: m-calpain protease blockers, concentration series – biochemical, fluorogenic peptide substrate, dose response (AID 1420); type: functional
T1 sequence (P43367 whole entry): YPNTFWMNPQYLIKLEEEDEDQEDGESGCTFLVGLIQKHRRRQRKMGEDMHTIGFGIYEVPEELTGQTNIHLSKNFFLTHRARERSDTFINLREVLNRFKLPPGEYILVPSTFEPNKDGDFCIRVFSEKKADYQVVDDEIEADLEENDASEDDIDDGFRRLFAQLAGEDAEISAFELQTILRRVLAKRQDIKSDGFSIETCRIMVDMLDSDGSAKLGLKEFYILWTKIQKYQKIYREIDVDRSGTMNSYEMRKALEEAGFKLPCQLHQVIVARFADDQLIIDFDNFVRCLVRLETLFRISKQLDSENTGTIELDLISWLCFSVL

[6] = viability loss in Vero cells – cytotoxicity control for Vif-APOBEC3G degradation inhibitor project, dose response (AID 1117358); type: functional; details: Vero
[7] = Dd2 parasite growth inhibition in erythrocytes – SYBR Green, dry powder samples, set 9, dose response (AID 1159568); type: functional, cell-based
[8] = P. falciparum Dd2 growth inhibitors, dose response, SYBR Green, cherry-picked samples (AID 1159567); type: functional, cell-based
[9] = toxicity to human hepatoma HepG2 cells – cell-based, cherry-picked samples, cytotoxicity control, dose response (AID 1159577); type: functional
NADPH oxidase 1 = biological target: T2, NADPH oxidase 1 (Homo sapiens, UniProt Q9Y5S8); assay: Late-stage luminescence-based cell-based dose response assay to identify inhibitors of NADPH oxidase 1 (NOX1): Purchased analogs 2.; type: functional
T2 sequence (Q9Y5S8 whole entry): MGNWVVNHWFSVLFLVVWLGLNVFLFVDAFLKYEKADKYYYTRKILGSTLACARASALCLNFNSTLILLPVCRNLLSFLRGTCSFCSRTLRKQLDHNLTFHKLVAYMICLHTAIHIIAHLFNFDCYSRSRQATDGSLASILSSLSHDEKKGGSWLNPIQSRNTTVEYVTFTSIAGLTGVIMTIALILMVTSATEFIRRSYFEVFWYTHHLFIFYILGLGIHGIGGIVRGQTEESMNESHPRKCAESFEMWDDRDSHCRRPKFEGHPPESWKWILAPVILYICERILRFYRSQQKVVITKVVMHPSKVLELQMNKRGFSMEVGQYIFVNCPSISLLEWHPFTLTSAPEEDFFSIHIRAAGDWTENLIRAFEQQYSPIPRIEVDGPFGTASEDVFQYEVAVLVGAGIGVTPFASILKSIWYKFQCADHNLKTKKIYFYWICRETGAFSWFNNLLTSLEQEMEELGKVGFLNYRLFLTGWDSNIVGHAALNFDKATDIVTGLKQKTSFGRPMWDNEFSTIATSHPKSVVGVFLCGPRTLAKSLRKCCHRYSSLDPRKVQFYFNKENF

Luciferin 4-monooxygenase, sequence (P08659 whole entry): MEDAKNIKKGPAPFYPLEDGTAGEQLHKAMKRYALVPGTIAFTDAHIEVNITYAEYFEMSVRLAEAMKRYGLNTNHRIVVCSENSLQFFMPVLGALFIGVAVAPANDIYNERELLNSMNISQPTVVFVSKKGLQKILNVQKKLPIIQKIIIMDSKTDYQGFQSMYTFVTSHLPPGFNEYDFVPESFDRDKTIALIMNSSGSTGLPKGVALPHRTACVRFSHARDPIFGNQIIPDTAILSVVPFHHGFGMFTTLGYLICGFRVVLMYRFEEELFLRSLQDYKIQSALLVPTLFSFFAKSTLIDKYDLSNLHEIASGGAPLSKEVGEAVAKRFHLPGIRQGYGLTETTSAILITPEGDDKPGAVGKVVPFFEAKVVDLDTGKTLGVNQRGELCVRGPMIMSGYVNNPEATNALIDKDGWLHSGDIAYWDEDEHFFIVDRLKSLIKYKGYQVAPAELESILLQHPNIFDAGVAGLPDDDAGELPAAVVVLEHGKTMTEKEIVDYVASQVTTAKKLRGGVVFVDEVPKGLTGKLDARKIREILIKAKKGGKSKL
Cytochrome P450 3A4, sequence (P08684 whole entry): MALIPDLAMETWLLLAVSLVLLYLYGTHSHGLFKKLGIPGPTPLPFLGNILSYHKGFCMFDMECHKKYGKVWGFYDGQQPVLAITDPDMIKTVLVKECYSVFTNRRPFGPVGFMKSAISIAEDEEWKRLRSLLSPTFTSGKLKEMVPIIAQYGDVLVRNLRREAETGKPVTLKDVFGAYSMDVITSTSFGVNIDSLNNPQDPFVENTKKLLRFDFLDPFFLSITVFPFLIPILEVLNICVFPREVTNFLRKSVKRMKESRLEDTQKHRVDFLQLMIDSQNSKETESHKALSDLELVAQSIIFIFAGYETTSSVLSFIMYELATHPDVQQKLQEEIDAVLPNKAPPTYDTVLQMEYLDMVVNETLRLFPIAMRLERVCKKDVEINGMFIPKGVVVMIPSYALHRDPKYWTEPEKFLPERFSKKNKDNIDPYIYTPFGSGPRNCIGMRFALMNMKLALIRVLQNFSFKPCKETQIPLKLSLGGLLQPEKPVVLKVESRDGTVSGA

SMILES: CCC(CC)=N/N=C/c1c(O)n(CC)c2cc(C3=NNC(=O)CC3)ccc12
EC50 [1]: > 112 µM (not active)
EC50 [2]: 2.71 µM (active)
EC50 [3]: < 0.3 µM (active)

SMILES: CCC(=O)N1CCC2(CC1)CN(C(C)=O)[C@@H](CO)c1[nH]c3cc(OC)ccc3c12
AC50 [4]: 20.1 µM (active)

SMILES: O=[N+]([O-])c1ccc(NCCCNS(=O)(=O)c2ccc(Cl)cc2)c(Cl)c1
IC50 [5]: 3.17 µM (not active)
CC50 [6]: > 40 µM (active)

SMILES: COc1ccccc1NC(=O)N1C[C@@H]2N[C@H](C1)[C@@H]2c1ccc(/C=C/c2ccccc2)cc1
AC50 [7]: 8.73 µM (active)
AC50 [8]: 1.96 µM (active)
AC50 [9]: 9.74 µM (active)

More lines, now with the values ahead:

EC50 (Transthyretin): > 167 µM (inactive)
SMILES: COc1ccc(-c2cc(C)no2)cc1S(=O)(=O)NCc1cccc(C)c1

IC50 (Heat shock protein HSP90): 13.4314 µM
AC50 (Cytochrome P450 3A4): 6.31 µM (inconclusive)
SMILES: CN(c1ccccc1)c1ccc(/C=c2\s/c(=C(/C#N)C(=O)C(C)(C)C)n(Cc3ccco3)c2=O)cc1

IC50 (NADPH oxidase 1): 0.321 µM (active)
SMILES: S=C(NNC(=S)Nc1ccccc1)Nc1ccccc1
